3 h FOB score data for 25 substances are collected here from the OligoGym collection.

HELM strings list units from the 5' end as sugar, base in round brackets, then linkage (d deoxyribose, r ribose, m 2'-O-methyl, p phosphodiester). Strings are as the collection lists them; they lack the last nucleoside at the 3' end of the tested compound. [moe] = 2'-O-(2-methoxyethyl) (MOE); [sp] = phosphorothioate linkage; [m5C] = 5-methylcytosine

In this series the target is GFAP. Kind of series: mouse, dose not given. To be noted: ASO.
In turn, “RNA1{[moe](G)[sp].[moe](T)p.[moe](G)p.[moe](G)p.[moe](T)p.d([m5C])[sp].d([m5C])[sp].d(T)[sp].d(A)[sp].d(A)[sp].d(A)[sp].d(T)[sp].d(A)[sp].d(T)[sp].d(T)[sp].[moe]([m5C])p.[moe](T)p.[moe](A)[sp].[moe](G)}$$$$ (last 3' nucleoside missing)” displayed a 3 h FOB score of 1 score 0-7.
The figure for “RNA1{[moe](G)[sp].[moe](T)p.[moe](G)p.[moe](T)p.[moe](A)[sp].d(T)[sp].d(T)[sp].d(A)[sp].d(G)[sp].d(G)[sp].d(A)[sp].d(T)[sp].d([m5C])[sp].[moe]([m5C])p.[moe]([m5C])p.[moe](A)[sp].[moe](T)}$$$$ (last 3' nucleoside missing)” is 4 score 0-7; for “RNA1{[moe](G)[sp].[moe](T)p.[moe](G)p.[moe](T)p.[moe](A)[sp].d(T)[sp].d(T)[sp].d(A)[sp].d(G)[sp].d(G)[sp].d(A)[sp].d(T)[sp].d([m5C])[sp].d([m5C])[sp].d([m5C])[sp].[moe](A)p.[moe](T)p.[moe]([m5C])[sp].[moe](T)}$$$$ (last 3' nucleoside missing)” it is 4 score 0-7.
Substance “RNA1{[moe](G)[sp].[moe](T)p.[moe](G)p.[moe](T)p.[moe](A)p.[moe](T)p.d(T)[sp].d(A)[sp].d(G)[sp].d(G)[sp].d(A)[sp].d(T)[sp].d([m5C])[sp].d([m5C])[sp].d([m5C])[sp].d(A)[sp].[moe](T)p.[moe]([m5C])[sp].[moe](T)}$$$$ (last 3' nucleoside missing)” registered a 3 h FOB score of 4 score 0-7.
Then “RNA1{[moe](G)[sp].[moe](T)p.[moe](G)p.[moe](T)p.[moe](A)p.d(T)[sp].d(T)[sp].d(A)[sp].d(G)[sp].d(G)[sp].d(A)[sp].d(T)[sp].d([m5C])[sp].d([m5C])[sp].d([m5C])[sp].[moe](A)p.[moe](T)p.[moe]([m5C])[sp].[moe](T)}$$$$ (last 3' nucleoside missing)”, with 2 score 0-7; and “RNA1{[moe](G)[sp].[moe](T)p.[moe](G)p.[moe](T)p.[moe](G)[sp].d(T)[sp].d(A)[sp].d(T)[sp].d(T)[sp].d(A)[sp].d(G)[sp].d(G)[sp].d(A)[sp].[moe](T)p.[moe]([m5C])p.[moe]([m5C])[sp].[moe]([m5C])}$$$$ (last 3' nucleoside missing)”, with 3 score 0-7.
“RNA1{[moe](G)[sp].[moe](T)p.[moe](G)p.[moe](T)p.[moe](G)[sp].d(T)[sp].d(A)[sp].d(T)[sp].d(T)[sp].d(A)[sp].d(G)[sp].d(G)[sp].d(A)[sp].d(T)[sp].d([m5C])[sp].[moe]([m5C])p.[moe]([m5C])p.[moe](A)[sp].[moe](T)}$$$$ (last 3' nucleoside missing)” had a 3 h FOB score of 6 score 0-7.
Then “RNA1{[moe](G)[sp].[moe](T)p.[moe](G)p.[moe](T)p.[moe](G)p.[moe](T)p.d(A)[sp].d(T)[sp].d(T)[sp].d(A)[sp].d(G)[sp].d(G)[sp].d(A)[sp].d(T)[sp].d([m5C])[sp].d([m5C])[sp].[moe]([m5C])p.[moe](A)[sp].[moe](T)}$$$$ (last 3' nucleoside missing)”, with 4 score 0-7.
Turning to “RNA1{[moe](G)[sp].[moe](T)p.[moe](G)p.[moe](T)p.d(A)[sp].d(T)[sp].d(T)[sp].d(A)[sp].d(G)[sp].d(G)[sp].d(A)[sp].d(T)[sp].d([m5C])[sp].d([m5C])[sp].[moe]([m5C])p.[moe](A)p.[moe](T)p.[moe]([m5C])[sp].[moe](T)}$$$$ (last 3' nucleoside missing)”, the 3 h FOB score is 3 score 0-7.
Then “RNA1{[moe](G)[sp].[moe](T)p.[moe](G)p.[moe]([m5C])p.[moe](T)[sp].d(G)[sp].d(A)[sp].d(G)[sp].d(A)[sp].d(A)[sp].d(T)[sp].d([m5C])[sp].d(A)[sp].d(A)[sp].d(G)[sp].[moe]([m5C])p.[moe](T)p.[moe]([m5C])[sp].[moe]([m5C])}$$$$ (last 3' nucleoside missing)”, with 0 score 0-7; and “RNA1{[moe](G)[sp].[moe](T)p.[moe](G)p.[moe]([m5C])p.[moe](T)[sp].d(G)[sp].d([m5C])[sp].d(T)[sp].d(G)[sp].d([m5C])[sp].d([m5C])[sp].d(A)[sp].d(G)[sp].d(A)[sp].d(G)[sp].[moe](T)p.[moe]([m5C])p.[moe]([m5C])[sp].[moe](T)}$$$$ (last 3' nucleoside missing)”, with 6 score 0-7.
“RNA1{[moe](G)[sp].[moe](T)p.[moe](G)p.[moe]([m5C])p.[moe](T)[sp].d(T)[sp].d(T)[sp].d(A)[sp].d(G)[sp].d(T)[sp].d(G)[sp].d(A)[sp].d([m5C])[sp].d([m5C])[sp].d(T)[sp].[moe](G)p.[moe](T)p.[moe](G)[sp].[moe](A)}$$$$ (last 3' nucleoside missing)” came in with a 3 h FOB score of 5 score 0-7.
Then “RNA1{[moe](G)[sp].[moe](T)p.[moe](G)p.[moe]([m5C])p.[moe](T)[sp].d(T)[sp].d(T)[sp].d(T)[sp].d([m5C])[sp].d(T)[sp].d(G)[sp].d([m5C])[sp].d([m5C])[sp].d(T)[sp].d([m5C])[sp].[moe]([m5C])p.[moe](A)p.[moe](G)[sp].[moe](G)}$$$$ (last 3' nucleoside missing)”, with 2 score 0-7; and “RNA1{[moe](G)[sp].[moe](T)p.[moe](G)p.[moe]([m5C])p.[moe](T)p.[moe](T)p.d(T)[sp].d(T)[sp].d(G)[sp].d([m5C])[sp].d([m5C])[sp].d([m5C])[sp].d([m5C])[sp].d([m5C])[sp].d(T)[sp].d(G)[sp].[moe](T)p.[moe](A)[sp].[moe](G)}$$$$ (last 3' nucleoside missing)”, with 3 score 0-7.
Then “RNA1{[moe](G)[sp].[moe](T)p.[moe](G)p.[moe]([m5C])p.[moe]([m5C])[sp].d([m5C])[sp].d([m5C])[sp].d([m5C])[sp].d([m5C])[sp].d(G)[sp].d([m5C])[sp].d([m5C])[sp].d([m5C])[sp].d(T)[sp].d([m5C])[sp].[moe]([m5C])p.[moe](T)p.[moe]([m5C])[sp].[moe]([m5C])}$$$$ (last 3' nucleoside missing)”, with 2 score 0-7; and “RNA1{[moe](G)[sp].[moe](T)p.[moe](G)p.[moe]([m5C])p.d(T)[sp].d(T)[sp].d(T)[sp].d(T)[sp].d(G)[sp].d([m5C])[sp].d([m5C])[sp].d([m5C])[sp].d([m5C])[sp].d([m5C])[sp].[moe](T)p.[moe](G)p.[moe](T)p.[moe](A)[sp].[moe](G)}$$$$ (last 3' nucleoside missing)”, with 3 score 0-7; and “RNA1{[moe](G)[sp].[moe](T)p.[moe](T)p.[moe](T)p.[moe]([m5C])[sp].d(T)[sp].d(T)[sp].d(G)[sp].d(T)[sp].d(T)[sp].d(A)[sp].d(G)[sp].d(T)[sp].d(T)[sp].d(G)[sp].[moe](G)p.[moe](A)p.[moe](G)[sp].[moe](T)}$$$$ (last 3' nucleoside missing)”, with 7 score 0-7.
The figure for “RNA1{[moe](G)[sp].[moe](T)p.[moe](T)p.[moe](T)p.[moe]([m5C])[sp].d([m5C])[sp].d(T)[sp].d(T)[sp].d(T)[sp].d(T)[sp].d(A)[sp].d([m5C])[sp].d([m5C])[sp].d(A)[sp].d(A)[sp].[moe](G)p.[moe]([m5C])p.[moe](T)[sp].[moe](G)}$$$$ (last 3' nucleoside missing)” is 4 score 0-7; for “RNA1{[moe](G)[sp].[moe](T)p.[moe]([m5C])p.[moe](A)p.[moe](G)[sp].d([m5C])[sp].d([m5C])[sp].d(T)[sp].d(G)[sp].d(G)[sp].d(T)[sp].d(T)[sp].d(A)[sp].[moe](G)p.[moe]([m5C])p.[moe]([m5C])[sp].[moe](T)}$$$$ (last 3' nucleoside missing)” it is 1 score 0-7.
Substance “RNA1{[moe](G)[sp].[moe](T)p.[moe]([m5C])p.[moe](A)p.[moe](G)[sp].d([m5C])[sp].d([m5C])[sp].d(T)[sp].d(G)[sp].d(G)[sp].d(T)[sp].d(T)[sp].d(A)[sp].d(G)[sp].d([m5C])[sp].[moe]([m5C])p.[moe](T)p.[moe](T)[sp].[moe](T)}$$$$ (last 3' nucleoside missing)” registered a 3 h FOB score of 6 score 0-7.
As for “RNA1{[moe](G)[sp].[moe](T)p.[moe]([m5C])p.[moe](A)p.[moe](G)p.[moe]([m5C])p.d([m5C])[sp].d(T)[sp].d(G)[sp].d(G)[sp].d(T)[sp].d(T)[sp].d(A)[sp].d(G)[sp].d([m5C])[sp].d([m5C])[sp].[moe](T)p.[moe](T)[sp].[moe](T)}$$$$ (last 3' nucleoside missing)”, the 3 h FOB score is 4 score 0-7.
Then “RNA1{[moe](G)[sp].[moe](T)p.[moe]([m5C])p.[moe](A)p.[moe](G)p.d([m5C])[sp].d([m5C])[sp].d(T)[sp].d(G)[sp].d(G)[sp].d(T)[sp].d(T)[sp].d(A)[sp].d(G)[sp].d([m5C])[sp].[moe]([m5C])p.[moe](T)p.[moe](T)[sp].[moe](T)}$$$$ (last 3' nucleoside missing)”, with 5 score 0-7; and “RNA1{[moe](G)[sp].[moe](T)p.[moe]([m5C])p.[moe](A)p.[moe]([m5C])[sp].d(A)[sp].d(T)[sp].d(T)[sp].d([m5C])[sp].d(A)[sp].d([m5C])[sp].d(T)[sp].d(A)[sp].[moe](A)p.[moe](T)p.[moe](A)[sp].[moe](T)}$$$$ (last 3' nucleoside missing)”, with 0 score 0-7.
“RNA1{[moe](G)[sp].[moe](T)p.[moe]([m5C])p.[moe](A)p.[moe]([m5C])[sp].d(A)[sp].d(T)[sp].d(T)[sp].d([m5C])[sp].d(A)[sp].d([m5C])[sp].d(T)[sp].d(A)[sp].d(A)[sp].d(T)[sp].[moe](A)p.[moe](T)p.[moe](T)[sp].[moe](T)}$$$$ (last 3' nucleoside missing)” registered a 3 h FOB score of 0 score 0-7.
The substance “RNA1{[moe](G)[sp].[moe](T)p.[moe]([m5C])p.[moe](A)p.[moe]([m5C])p.[moe](A)p.d(T)[sp].d(T)[sp].d([m5C])[sp].d(A)[sp].d([m5C])[sp].d(T)[sp].d(A)[sp].d(A)[sp].d(T)[sp].d(A)[sp].[moe](T)p.[moe](T)[sp].[moe](T)}$$$$ (last 3' nucleoside missing)” had a 3 h FOB score of 0 score 0-7.
